# Marks after values point to notes of the source that are not given here.
# Legend:
# Assay type in all cases: cell-based, human
# MDA-MB-231 (ER−) = experiment: Apoptosis in breast cancer cell lines, CaspACE assay with flow cytometry; details: Tamoxifen 100 μM, 16 hours
# From the text: (§1) The apoptotic effect of CDME was compared to that of tamoxifen using the CaspACE™ assay system (Promega) and conventional flow cytometry techniques.
# (§2) All cell lines were obtained from the American Type Culture Collection, P.O. Box 1549, Manassas, Va., 20108 unless otherwise indicated. The cell lines studied were estrogen receptor-negative breast cancer cell lines MDA-MB-231 (ATCC Accession No. HTB-26) and MDA-MB-468 (ATCC Accession No. HTB-132) and estrogen receptor-positive breast cancer cell lines, MCF-7 (ATCC Accession No. HTB-22) and T-47D (ATCC Accession No. HTB-133).
# (§3) All cell lines were grown on the bottom of 12-well flasks in Gibco RPMI-1640, until they reached the confluency of about 50%. After that, the medium was exchanged with DMEM (Sigma, D-5030), supplemented with 10% charcoal-treated FBS.
# (§4) After four days (at confluency of about 75%), cells were treated by exposure to either CDME (500 μM) or tamoxifen (100 μM) or neither for 16 hours at 37° C. CaspACE™ assay analysis of the treated and control cells was performed as described in Example 2 and measured via flow cytometry. Note that the dosage of tamoxifen was a maximum positive control dose, higher than that normally administered for chemotherapy.
# MDA-MB-468 (ER−) = experiment: as above; details: Tamoxifen 100 μM, 16 hours
# From the text: as §1, §2, §3, §4
# T-47D (ER+) = experiment: as above; details: Tamoxifen 100 μM, 16 hours
# From the text: as §1, §2, §3, §4
# MCF-7 (ER+) = experiment: as above; details: Tamoxifen 100 μM, 16 hours
# From the text: as §1, §2, §3, §4
# [1] = test system: GM00379 intermediate cystinotic fibroblasts; experiment: Apoptosis by apoptotic triggers, TUNEL assay; details: TNF-a 30 ng/mL with actinomycin D 2.5 μg/mL for 16 hours
# Procedure: (§5) Normal and cystinotic fibroblasts were purchased from the Coriell Mutant Cell Repository, and cultured in Coon modification of Ham F12 medium, supplemented with 10% fetal calf serum (FCS). Renal proximal tubule epithelial (RPTE; Biowhittaker Corp.) were cultured in renal epithelial basal medium supplemented with one Singlequots™ kit (Biowhittaker) per 500 mL to make renal epithelial growth media (REGM, Biowhittaker). Fibroblasts and RPTE were maintained in a 5% carbon dioxide, 95% air, humidified incubator at 37° C. (Thoene J. G. et al, 1976 J. Clin. Invest, 58:180-189).
# (§6) Induction of apoptosis and assays for its detection were performed using commercially available reagents. Normal and cystinotic fibroblasts were matched for passage number (±3) and cell density, and then exposed to an apoptotic trigger. One apoptotic trigger used was TNF-a (30 ng/mL) with actinomycin D (2.5 μg/mL) for 16 hours. Another trigger was anti-Fas antibody (500 ng/mL) with actinomycin D (2.5 μg/mL) for 16 hours. A third trigger to induce apoptosis in the cells was Ultraviolet B light (60 mJ). See, e.g., previously described protocols of Aggarwal B B, 1992 Immunol. Ser., 56:61-78; Higuchi M. et al, 1995 J. Immunol. Meth., 178:173-181; Itoh N, et al, 1991 Cell, 66:233-243; Itoh N. et al, 1993 J. Biol. Chem., 268:10932-10937. Serum withdrawal was also used as a apoptotic stimulus (Lieberthal W, et al, 1998 Am. J. Physiol. 275:F691-F702; Verzola D. et al, 2001 Exp Nephrol., 9:366-371; Iglesias J. et al, 1999 Am. J. Physiol. 277:F711-F712; Kulkarni G V, et al, 1994 J. Cell Sci., 107:1169-1179), in which case the cells were incubated in F12 medium without serum for 24 hours and then analyzed for apoptosis.
# (§7) 2. TUNEL Assay • The TUNEL assay employs terminal deoxynucleotidyl transferase (TdT) to label the ends of double stranded DNA breaks, which occur in apoptotic cells, with FITC-conjugated dUTP. Cells were fixed in 4% buffered formalin, washed, incubated in permeabilization solution (0.1% Triton X-100 in 0.1% Na Citrate) for 2 minutes on ice and then stained with 25 μL of TdT/45 μL of labeled dNTP mix for 40 minutes at 37° C. The cells were visually enumerated by fluorescence microscopy, scoring a minimum of five fields (250 to 300 cells) for fluorescence in triplicate followed by counting all cells in the same field by light microscopy, with a minimum of 750 cells scored per condition. The apoptosis rate is the total number of cells that fluoresce divided by the total cells in the field.
# (§8) In another experiment, cells were treated with apoptosis inducers as indicated, stained with TUNEL reagent, and analyzed by florescence microscopy. A minimum of 250 cells were scored per conditions in triplicate. […] P>0.05 for ocular versus normal and intermediate; P=0.01 for ocular versus nephropathic.
# [2] = test system: GM00046 nephropathic cystinotic fibroblasts; experiment: Apoptosis by apoptotic triggers, TUNEL assay; details: TNF-a 30 ng/mL with actinomycin D 2.5 μg/mL for 16 hours
# Procedure: as §5, §6, §7, §8
# [3] = test system: normal fibroblasts (AVG of 2); experiment: Apoptosis by apoptotic triggers, TUNEL assay; details: TNF-a 30 ng/mL with actinomycin D 2.5 μg/mL for 16 hours, AVG of 2 normal lines
# Procedure: as §5, §6, §7, §8
# [4] = test system: GM05399 normal fibroblasts; experiment: Apoptosis by apoptotic triggers, TUNEL assay; details: TNF-a 30 ng/mL with actinomycin D 2.5 μg/mL for 16 hours
# Procedure: as §5, §6, §7, §8
# [5] = test system: nephropathic cystinotic fibroblasts (AVG of 3); experiment: Apoptosis by apoptotic triggers, TUNEL assay; details: TNF-a 30 ng/mL with actinomycin D 2.5 μg/mL for 16 hours, AVG of 3 nephropathic lines
# Procedure: as §5, §6, §7, §8
# [6] = test system: GM08761 ocular cystinotic fibroblasts; experiment: Apoptosis by apoptotic triggers, TUNEL assay; details: TNF-a 30 ng/mL with actinomycin D 2.5 μg/mL for 16 hours
# Procedure: as §5, §6, §7, §8
# [7] = test system: GM00008 nephropathic cystinotic fibroblasts; experiment: Apoptosis by apoptotic triggers, TUNEL assay; details: TNF-a 30 ng/mL with actinomycin D 2.5 μg/mL for 16 hours
# Procedure: as §5, §6, §7, §8
# [8] = test system: GM00010 normal fibroblasts; experiment: Apoptosis by apoptotic triggers, TUNEL assay; details: TNF-a 30 ng/mL with actinomycin D 2.5 μg/mL for 16 hours
# Procedure: as §5, §6, §7, §8
# [9] = test system: GM00760 nephropathic cystinotic fibroblasts; experiment: Apoptosis by apoptotic triggers, TUNEL assay; details: TNF-a 30 ng/mL with actinomycin D 2.5 μg/mL for 16 hours
# Procedure: as §5, §6, §7, §8
# [10] = test system: cathepsin B in normal and nephropathic cystinotic fibroblasts; experiment: Cathepsin B localisation by immunohistochemistry; details: after TNF-a exposure; Lysotracker red and anti-cathepsin B staining
# Procedure: Cells were stained by Lysotracker® Red stain (Molecular Probes) for 5 minutes at room temperature, washed twice in PBS, and then fixed in 4% formalin for 1 hour. Slides were immersed in blocking buffer (PBS, pH 7.2, 0.5% Carnation® dry milk, 0.1% Triton® X-100 reagent) for 20 minutes at room temperature, washed twice in PBS, and then incubated with primary antibody (anti-cathepsin B, Santa Cruz Biotechnologies) diluted 1:100 for 2 hours at room temperature, followed by incubation with secondary antibody (FITC-conjugated rabbit anti-goat, Santa Cruz Biotechnologies), at 4° C. overnight. Slides were washed twice with PBS and then sealed with cover slips and viewed using a Leica® DMRX deconvoluting microscope.
# To substantiate that lysosomes are perneabilized by TNF-a (Guicciardi M, 2000J. Clin. Invest., 106:1127-1137) under these conditions, cathepsin B (a lysosomal cysteine protease) was localized by immunohistochemistry in normal and nephropathic cystinotic cells before and after induction of apoptosis. Fibroblasts were maintained under normal culture conditions, exposed to TNF-a, loaded with Lysotracker® red reagent, fixed, and stained for cathepsin B using an anti-cathepsin B antibody. Photographs were made via a deconvoluting microscope.
# Lysosomes were identified with Lysotracker red dye. […]
# [11] = test system: GM00379 intermediate cystinotic fibroblasts; experiment: Apoptosis by apoptotic triggers, CaspACE assay; details: TNF-a 30 ng/mL with actinomycin D 2.5 μg/mL for 16 hours
# Procedure: as §5, §6
# (§9) 1. The CaspACE Assay • CaspACE (Promega) is an FITC-conjugated cell-permeable form of the pan-caspase inhibitor zVAD-Fmk, which binds to activated caspase(s). Cells were incubated in FITC-VAD-Fmk-containing medium (10 μM for 30 minutes at 37° C.), washed, and then fixed in 10% buffered formalin (30 minutes at room temperature) before analysis. The cells were visually enumerated by fluorescence microscopy, scoring a minimum of five fields (250 to 300 cells) for fluorescence in triplicate followed by counting all cells in the same field by light microscopy, with a minimum of 750 cells scored per condition. The apoptosis rate is the total number of cells that fluoresce divided by the total cells in the field.
# (§10) Apoptosis was induced in three nephropathic cystinotic, two normal, one intermediate cystinotic, and one ocular cystinotic fibroblast lines by three separate inducers. In one experiment, cells were treated with apoptosis inducers as indicated above. Apoptosis in these lines was assessed by CaspACE assay and analyzed by fluorescence microscopy. A minimum of 250 cells was scored per condition, in triplicate. Thus at least 750 cells were scored precondition. T-statistics: P<0.001 for average nephropathic versus average normal. P<0.05 for ocular versus nephropathic. P>0.05 for ocular versus normal, intermediate versus nephropathic, and intermediate versus normal.
# [12] = test system: GM00046 nephropathic cystinotic fibroblasts; experiment: Apoptosis by apoptotic triggers, CaspACE assay; details: TNF-a 30 ng/mL with actinomycin D 2.5 μg/mL for 16 hours
# Procedure: as §5, §6, §9, §10
# [13] = test system: normal fibroblasts (AVG of 2); experiment: Apoptosis by apoptotic triggers, CaspACE assay; details: TNF-a 30 ng/mL with actinomycin D 2.5 μg/mL for 16 hours, AVG of 2 normal lines
# Procedure: as §5, §6, §9, §10
# [14] = test system: GM05399 normal fibroblasts; experiment: Apoptosis by apoptotic triggers, CaspACE assay; details: TNF-a 30 ng/mL with actinomycin D 2.5 μg/mL for 16 hours
# Procedure: as §5, §6, §9, §10
# [15] = test system: nephropathic cystinotic fibroblasts (AVG of 3); experiment: Apoptosis by apoptotic triggers, CaspACE assay; details: TNF-a 30 ng/mL with actinomycin D 2.5 μg/mL for 16 hours, AVG of 3 nephropathic lines
# Procedure: as §5, §6, §9, §10
# [16] = test system: GM08761 ocular cystinotic fibroblasts; experiment: Apoptosis by apoptotic triggers, CaspACE assay; details: TNF-a 30 ng/mL with actinomycin D 2.5 μg/mL for 16 hours
# Procedure: as §5, §6, §9, §10
# [17] = test system: GM00008 nephropathic cystinotic fibroblasts; experiment: Apoptosis by apoptotic triggers, CaspACE assay; details: TNF-a 30 ng/mL with actinomycin D 2.5 μg/mL for 16 hours
# Procedure: as §5, §6, §9, §10
# [18] = test system: GM00010 normal fibroblasts; experiment: Apoptosis by apoptotic triggers, CaspACE assay; details: TNF-a 30 ng/mL with actinomycin D 2.5 μg/mL for 16 hours
# Procedure: as §5, §6, §9, §10
# [19] = test system: GM00760 nephropathic cystinotic fibroblasts; experiment: Apoptosis by apoptotic triggers, CaspACE assay; details: TNF-a 30 ng/mL with actinomycin D 2.5 μg/mL for 16 hours
# Procedure: as §5, §6, §9, §10
compound,measurement,setting,value
"CC/C(=C(\c1ccccc1)c1ccc(OCCN(C)C)cc1)c1ccccc1 [Tamoxifen, tamoxifen, reference compound]",percent of apoptotic cells (±S.D.),MDA-MB-231 (ER−),98.92 ± 0.99%
same,percent of apoptotic cells (±S.D.),MDA-MB-468 (ER−),90.37 ± 1.70%
same,percent of apoptotic cells (±S.D.),T-47D (ER+),99.91 ± 0.08%
same,percent of apoptotic cells (±S.D.),MCF-7 (ER+),98.47 ± 0.53%
TNF-a,% Apoptosis,[1],8.2%
same,% Apoptosis,[2],15.3* %
same,% Apoptosis,[3],12.1%
same,% Apoptosis,[4],11.4%
same,% Apoptosis,[5],17.2%
same,% Apoptosis,[6],5.5%
same,% Apoptosis,[7],17.1%
same,% Apoptosis,[8],12.8%
same,% Apoptosis,[9],19.3%
same,localisation of cathepsin B,[10],translocation of cathepsin B from a lysosomal location to a diffuse cytosolic location
same,% Apoptosis,[11],11.4%
same,% Apoptosis,[12],16.1%
same,% Apoptosis,[13],7.8%
same,% Apoptosis,[14],6.3%
same,% Apoptosis,[15],14.8%
same,% Apoptosis,[16],8.2%
same,% Apoptosis,[17],14.9%
same,% Apoptosis,[18],9.2%
same,% Apoptosis,[19],13.5%

# Reference: patent US8222008B2, “Methods and compositions for treating cancer” (The Administrators of The Tulane Educational Fund, priority 2003, dated 2012)
